PubChem BioAssay (NCI)
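These data come from cells grown in 96-well plates and exposed to compound for 48 hours at five concentrations. At the GI50, growth is halved. TGI marks complete inhibition of growth.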

Assays:
Experiment in all cases: inhibition of tumour cell growth, NCI panel, 48 h
CAKI-1 renal = system: CAKI-1 renal
MDA-MB-231 breast = system: MDA-MB-231 breast
M14 melanoma = system: M14 melanoma
RPMI-8226 leukemia = system: RPMI-8226 leukemia
HS 578T breast = system: HS 578T breast
OVCAR-4 ovarian = system: OVCAR-4 ovarian
SN12C renal = system: SN12C renal
EKVX NSCLC = system: EKVX NSCLC
NCI-H23 lung = system: NCI-H23 lung
SNB-19 CNS = system: SNB-19 CNS
UACC-257 melanoma = system: UACC-257 melanoma
PC-3 prostate = system: PC-3 prostate
NCI/ADR-RES ovarian = system: NCI/ADR-RES ovarian
HCC-2998 colon = system: HCC-2998 colon
LOX IMVI melanoma = system: LOX IMVI melanoma
SK-OV-3 ovarian = system: SK-OV-3 ovarian
K-562 leukemia = system: K-562 leukemia
MDA-MB-435 = system: MDA-MB-435
HOP-92 NSCLC = system: HOP-92 NSCLC
786-0 renal = system: 786-0 renal
MOLT-4 leukemia = system: MOLT-4 leukemia
A549 NSCLC = system: A549 NSCLC
SK-MEL-2 melanoma = system: SK-MEL-2 melanoma
SF-295 CNS = system: SF-295 CNS
UO-31 renal = system: UO-31 renal
MCF7 breast = system: MCF7 breast
NCI-H226 lung = system: NCI-H226 lung
U251 CNS = system: U251 CNS
CCRF-CEM leukemia = system: CCRF-CEM leukemia
NCI-H460 lung = system: NCI-H460 lung
RXF 393 renal = system: RXF 393 renal
IGROV1 ovarian = system: IGROV1 ovarian
HCT-15 colon = system: HCT-15 colon
DU-145 prostate = system: DU-145 prostate
UACC-62 melanoma = system: UACC-62 melanoma
MALME-3M melanoma = system: MALME-3M melanoma
SW-620 colon = system: SW-620 colon
SK-MEL-5 melanoma = system: SK-MEL-5 melanoma
BT-549 breast = system: BT-549 breast
SNB-75 CNS = system: SNB-75 CNS
HOP-62 NSCLC = system: HOP-62 NSCLC
SF-268 CNS = system: SF-268 CNS
KM12 colon = system: KM12 colon
HL-60(TB) leukemia = system: HL-60(TB) leukemia
OVCAR-3 ovarian = system: OVCAR-3 ovarian
COLO 205 colon = system: COLO 205 colon
TK-10 renal = system: TK-10 renal
T-47D breast = system: T-47D breast

CC(C)(C)c1ccc(OCCCCCCCN2CCNCC2)cc1
GI50 (CAKI-1 renal): 1460 nM | TGI (CAKI-1 renal): 2810 nM | GI50 (MDA-MB-231 breast): 1310 nM | TGI (MDA-MB-231 breast): 3020 nM | GI50 (M14 melanoma): 1550 nM | TGI (M14 melanoma): 3020 nM | GI50 (RPMI-8226 leukemia): 1830 nM | TGI (RPMI-8226 leukemia): 4250 nM | GI50 (HS 578T breast): 1920 nM | TGI (HS 578T breast): 4770 nM | GI50 (OVCAR-4 ovarian): 1600 nM | TGI (OVCAR-4 ovarian): 3220 nM | GI50 (SN12C renal): 2730 nM | TGI (SN12C renal): 7620 nM | GI50 (EKVX NSCLC): 3040 nM | TGI (EKVX NSCLC): 12700 nM | GI50 (NCI-H23 lung): 4280 nM | TGI (NCI-H23 lung): 17600 nM | GI50 (SNB-19 CNS): 3420 nM | TGI (SNB-19 CNS): 12800 nM | GI50 (UACC-257 melanoma): 1980 nM | TGI (UACC-257 melanoma): 3800 nM | GI50 (PC-3 prostate): 1660 nM | TGI (PC-3 prostate): 3850 nM | GI50 (NCI/ADR-RES ovarian): 2460 nM | TGI (NCI/ADR-RES ovarian): 6940 nM | GI50 (HCC-2998 colon): 1700 nM | TGI (HCC-2998 colon): 3220 nM | GI50 (LOX IMVI melanoma): 1520 nM | TGI (LOX IMVI melanoma): 3060 nM | GI50 (SK-OV-3 ovarian): 1820 nM | TGI (SK-OV-3 ovarian): 3920 nM | GI50 (K-562 leukemia): 1560 nM | TGI (K-562 leukemia): 3810 nM | GI50 (MDA-MB-435): 1570 nM | TGI (MDA-MB-435): 2980 nM | GI50 (HOP-92 NSCLC): 1720 nM | TGI (HOP-92 NSCLC): 6110 nM | GI50 (786-0 renal): 1630 nM | TGI (786-0 renal): 3070 nM | GI50 (MOLT-4 leukemia): 1700 nM | TGI (MOLT-4 leukemia): 3710 nM | GI50 (A549 NSCLC): 1720 nM | TGI (A549 NSCLC): 3600 nM | GI50 (SK-MEL-2 melanoma): 1740 nM | TGI (SK-MEL-2 melanoma): 3470 nM | GI50 (SF-295 CNS): 1840 nM | TGI (SF-295 CNS): 3780 nM | GI50 (UO-31 renal): 1430 nM | TGI (UO-31 renal): 3310 nM | GI50 (MCF7 breast): 1620 nM | TGI (MCF7 breast): 3260 nM | GI50 (NCI-H226 lung): 1860 nM | TGI (NCI-H226 lung): 4100 nM | GI50 (U251 CNS): 1510 nM | TGI (U251 CNS): 3050 nM | GI50 (CCRF-CEM leukemia): 1620 nM | TGI (CCRF-CEM leukemia): 4100 nM | GI50 (NCI-H460 lung): 1830 nM | TGI (NCI-H460 lung): 3470 nM | GI50 (RXF 393 renal): 1690 nM | TGI (RXF 393 renal): 3370 nM | GI50 (IGROV1 ovarian): 1920 nM | TGI (IGROV1 ovarian): 3660 nM | GI50 (HCT-15 colon): 1640 nM | TGI (HCT-15 colon): 3380 nM | GI50 (DU-145 prostate): 1780 nM | TGI (DU-145 prostate): 3370 nM | GI50 (UACC-62 melanoma): 1880 nM | TGI (UACC-62 melanoma): 3600 nM | GI50 (MALME-3M melanoma): 1600 nM | TGI (MALME-3M melanoma): 3170 nM | GI50 (SW-620 colon): 1670 nM | TGI (SW-620 colon): 3260 nM | GI50 (SK-MEL-5 melanoma): 1820 nM | TGI (SK-MEL-5 melanoma): 3400 nM | GI50 (BT-549 breast): 1530 nM | TGI (BT-549 breast): 3010 nM | GI50 (SNB-75 CNS): 1570 nM | TGI (SNB-75 CNS): 3740 nM | GI50 (HOP-62 NSCLC): 1300 nM | TGI (HOP-62 NSCLC): 2920 nM | GI50 (SF-268 CNS): 2360 nM | TGI (SF-268 CNS): 6650 nM | GI50 (KM12 colon): 1850 nM | TGI (KM12 colon): 3600 nM | GI50 (HL-60(TB) leukemia): 1450 nM | TGI (HL-60(TB) leukemia): 3300 nM | GI50 (OVCAR-3 ovarian): 1630 nM | TGI (OVCAR-3 ovarian): 3120 nM | GI50 (COLO 205 colon): 1490 nM | TGI (COLO 205 colon): 3240 nM | GI50 (TK-10 renal): 1600 nM | TGI (TK-10 renal): 3060 nM | GI50 (T-47D breast): 1760 nM | TGI (T-47D breast): 3930 nM
